PubChem BioAssay (NCI)
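In this assay, cells in 96-well plates receive the compound at five concentrations for 48 hours. Endpoints are linearly interpolated between the surrounding concentrations. TGI is the concentration that stops growth completely.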

How the values were obtained:
Test in all cases: NCI-60 cell line screen, 48 h
HCT-116 colon = tested on: HCT-116 colon
MDA-MB-231 breast = tested on: MDA-MB-231 breast
BT-549 breast = tested on: BT-549 breast
SR leukemia = tested on: SR leukemia
MDA-MB-435 = tested on: MDA-MB-435
HCC-2998 colon = tested on: HCC-2998 colon
CAKI-1 renal = tested on: CAKI-1 renal
SNB-75 CNS = tested on: SNB-75 CNS
OVCAR-5 ovarian = tested on: OVCAR-5 ovarian
UACC-257 melanoma = tested on: UACC-257 melanoma
OVCAR-3 ovarian = tested on: OVCAR-3 ovarian
EKVX NSCLC = tested on: EKVX NSCLC
MALME-3M melanoma = tested on: MALME-3M melanoma
PC-3 prostate = tested on: PC-3 prostate
KM12 colon = tested on: KM12 colon
TK-10 renal = tested on: TK-10 renal
HOP-92 NSCLC = tested on: HOP-92 NSCLC
SF-539 CNS = tested on: SF-539 CNS
UACC-62 melanoma = tested on: UACC-62 melanoma
MDA-N = tested on: MDA-N
SK-MEL-5 melanoma = tested on: SK-MEL-5 melanoma
SK-MEL-28 melanoma = tested on: SK-MEL-28 melanoma
K-562 leukemia = tested on: K-562 leukemia
SNB-19 CNS = tested on: SNB-19 CNS
SN12C renal = tested on: SN12C renal
T-47D breast = tested on: T-47D breast
CCRF-CEM leukemia = tested on: CCRF-CEM leukemia
NCI-H23 lung = tested on: NCI-H23 lung
SK-MEL-2 melanoma = tested on: SK-MEL-2 melanoma
SF-268 CNS = tested on: SF-268 CNS
OVCAR-8 ovarian = tested on: OVCAR-8 ovarian
SK-OV-3 ovarian = tested on: SK-OV-3 ovarian
MCF7 breast = tested on: MCF7 breast
ACHN renal = tested on: ACHN renal
NCI-H460 lung = tested on: NCI-H460 lung
RPMI-8226 leukemia = tested on: RPMI-8226 leukemia
COLO 205 colon = tested on: COLO 205 colon
NCI-H522 lung = tested on: NCI-H522 lung
HOP-62 NSCLC = tested on: HOP-62 NSCLC
HCT-15 colon = tested on: HCT-15 colon
IGROV1 ovarian = tested on: IGROV1 ovarian
DU-145 prostate = tested on: DU-145 prostate
HL-60(TB) leukemia = tested on: HL-60(TB) leukemia
NCI-H226 lung = tested on: NCI-H226 lung
RXF 393 renal = tested on: RXF 393 renal
SW-620 colon = tested on: SW-620 colon
LOX IMVI melanoma = tested on: LOX IMVI melanoma
A549 NSCLC = tested on: A549 NSCLC
NCI/ADR-RES ovarian = tested on: NCI/ADR-RES ovarian
786-0 renal = tested on: 786-0 renal
UO-31 renal = tested on: UO-31 renal
U251 CNS = tested on: U251 CNS
MOLT-4 leukemia = tested on: MOLT-4 leukemia
OVCAR-4 ovarian = tested on: OVCAR-4 ovarian
HS 578T breast = tested on: HS 578T breast
HT29 colon = tested on: HT29 colon
M14 melanoma = tested on: M14 melanoma
SF-295 CNS = tested on: SF-295 CNS
A498 renal = tested on: A498 renal

**Q.** For `C[n+]1cn(C2=C([O-])c3ccccc3C(=O)/C2=N\S(=O)(=O)c2ccccc2)c2ccccc21`, which TGI (HCT-116 colon) is on record?
**A.** > 100 µM

**Q.** What about the TGI (MDA-MB-231 breast) of the same compound?
**A.** > 100 µM

**Q.** What about the TGI (BT-549 breast) of the same compound?
**A.** 86.1 µM

**Q.** What about the TGI (SR leukemia) of the same compound?
**A.** > 100 µM

**Q.** And the TGI (MDA-MB-435)?
**A.** 6.34 µM

**Q.** And the TGI (HCC-2998 colon)?
**A.** 46.7 µM

**Q.** What about the TGI (CAKI-1 renal) of the same compound?
**A.** > 100 µM

**Q.** And the TGI (SNB-75 CNS)?
**A.** > 100 µM

**Q.** And the TGI (OVCAR-5 ovarian)?
**A.** > 100 µM

**Q.** And the TGI (UACC-257 melanoma)?
**A.** 76.6 µM

**Q.** What about the TGI (OVCAR-3 ovarian) of the same compound?
**A.** 44.9 µM

**Q.** And the TGI (EKVX NSCLC)?
**A.** > 100 µM

**Q.** And the TGI (MALME-3M melanoma)?
**A.** 5.88 µM

**Q.** What about the TGI (PC-3 prostate) of the same compound?
**A.** > 100 µM

**Q.** What about the TGI (KM12 colon) of the same compound?
**A.** > 100 µM

**Q.** And the TGI (TK-10 renal)?
**A.** 70.5 µM

**Q.** And the TGI (HOP-92 NSCLC)?
**A.** > 100 µM

**Q.** And the TGI (SF-539 CNS)?
**A.** > 100 µM

**Q.** And the TGI (UACC-62 melanoma)?
**A.** 45.6 µM

**Q.** What about the TGI (MDA-N) of the same compound?
**A.** 26.6 µM

**Q.** What about the TGI (SK-MEL-5 melanoma) of the same compound?
**A.** > 100 µM

**Q.** And the TGI (SK-MEL-28 melanoma)?
**A.** > 100 µM

**Q.** And the TGI (K-562 leukemia)?
**A.** > 100 µM

**Q.** And the TGI (SNB-19 CNS)?
**A.** 78.5 µM

**Q.** What about the TGI (SN12C renal) of the same compound?
**A.** > 100 µM

**Q.** What about the TGI (T-47D breast) of the same compound?
**A.** > 100 µM

**Q.** And the TGI (CCRF-CEM leukemia)?
**A.** > 100 µM

**Q.** And the TGI (NCI-H23 lung)?
**A.** 34.7 µM

**Q.** And the TGI (SK-MEL-2 melanoma)?
**A.** 44.1 µM

**Q.** And the TGI (SF-268 CNS)?
**A.** > 100 µM

**Q.** What about the TGI (OVCAR-8 ovarian) of the same compound?
**A.** 77.4 µM

**Q.** What about the TGI (SK-OV-3 ovarian) of the same compound?
**A.** > 100 µM

**Q.** What about the TGI (MCF7 breast) of the same compound?
**A.** > 100 µM

**Q.** What about the TGI (ACHN renal) of the same compound?
**A.** > 100 µM

**Q.** And the TGI (NCI-H460 lung)?
**A.** 84.5 µM

**Q.** And the TGI (RPMI-8226 leukemia)?
**A.** > 100 µM

**Q.** And the TGI (COLO 205 colon)?
**A.** 26.1 µM

**Q.** And the TGI (NCI-H522 lung)?
**A.** 26.8 µM

**Q.** And the TGI (HOP-62 NSCLC)?
**A.** > 100 µM

**Q.** What about the TGI (HCT-15 colon) of the same compound?
**A.** > 100 µM

**Q.** What about the TGI (IGROV1 ovarian) of the same compound?
**A.** 87.3 µM

**Q.** And the TGI (DU-145 prostate)?
**A.** > 100 µM

**Q.** What about the TGI (HL-60(TB) leukemia) of the same compound?
**A.** 86.1 µM

**Q.** And the TGI (NCI-H226 lung)?
**A.** > 100 µM

**Q.** What about the TGI (RXF 393 renal) of the same compound?
**A.** 85.1 µM

**Q.** And the TGI (SW-620 colon)?
**A.** > 100 µM

**Q.** What about the TGI (LOX IMVI melanoma) of the same compound?
**A.** 76.4 µM

**Q.** And the TGI (A549 NSCLC)?
**A.** > 100 µM

**Q.** And the TGI (NCI/ADR-RES ovarian)?
**A.** > 100 µM

**Q.** And the TGI (786-0 renal)?
**A.** > 100 µM

**Q.** And the TGI (UO-31 renal)?
**A.** > 100 µM

**Q.** What about the TGI (U251 CNS) of the same compound?
**A.** 50.7 µM

**Q.** What about the TGI (MOLT-4 leukemia) of the same compound?
**A.** > 100 µM

**Q.** And the TGI (OVCAR-4 ovarian)?
**A.** 37.8 µM

**Q.** And the TGI (HS 578T breast)?
**A.** > 100 µM

**Q.** What about the TGI (HT29 colon) of the same compound?
**A.** > 100 µM

**Q.** What about the TGI (M14 melanoma) of the same compound?
**A.** 48.3 µM

**Q.** And the TGI (SF-295 CNS)?
**A.** > 100 µM

**Q.** Which TGI (HCT-116 colon) does the source give for `COC(=O)C1(NC(=O)C(CC(=O)OCc2ccccc2)NC(=O)OCc2ccccc2)CCCCCCC1` (configuration not stated) here?
**A.** > 100 µM

**Q.** And the TGI (MDA-MB-231 breast)?
**A.** > 100 µM

**Q.** What about the TGI (BT-549 breast) of the same compound?
**A.** > 100 µM

**Q.** And the TGI (SR leukemia)?
**A.** > 100 µM

**Q.** And the TGI (MDA-MB-435)?
**A.** > 100 µM

**Q.** What about the TGI (CAKI-1 renal) of the same compound?
**A.** > 100 µM

**Q.** And the TGI (SNB-75 CNS)?
**A.** > 100 µM

**Q.** What about the TGI (OVCAR-5 ovarian) of the same compound?
**A.** > 100 µM

**Q.** And the TGI (OVCAR-3 ovarian)?
**A.** > 100 µM

**Q.** And the TGI (EKVX NSCLC)?
**A.** > 100 µM

**Q.** What about the TGI (PC-3 prostate) of the same compound?
**A.** > 100 µM

**Q.** What about the TGI (KM12 colon) of the same compound?
**A.** > 100 µM

**Q.** And the TGI (TK-10 renal)?
**A.** > 100 µM

**Q.** What about the TGI (HOP-92 NSCLC) of the same compound?
**A.** > 100 µM

**Q.** What about the TGI (SF-539 CNS) of the same compound?
**A.** > 100 µM

**Q.** And the TGI (UACC-62 melanoma)?
**A.** 63.2 µM

**Q.** What about the TGI (MDA-N) of the same compound?
**A.** > 100 µM

**Q.** And the TGI (SK-MEL-5 melanoma)?
**A.** 29.4 µM

**Q.** And the TGI (SK-MEL-28 melanoma)?
**A.** > 100 µM

**Q.** And the TGI (K-562 leukemia)?
**A.** > 100 µM

**Q.** What about the TGI (SNB-19 CNS) of the same compound?
**A.** > 100 µM

**Q.** And the TGI (SN12C renal)?
**A.** > 100 µM

**Q.** What about the TGI (T-47D breast) of the same compound?
**A.** 94.2 µM

**Q.** What about the TGI (NCI-H23 lung) of the same compound?
**A.** > 100 µM

**Q.** What about the TGI (SF-268 CNS) of the same compound?
**A.** > 100 µM

**Q.** What about the TGI (OVCAR-8 ovarian) of the same compound?
**A.** > 100 µM

**Q.** And the TGI (SK-OV-3 ovarian)?
**A.** > 100 µM

**Q.** What about the TGI (MCF7 breast) of the same compound?
**A.** > 100 µM

**Q.** And the TGI (ACHN renal)?
**A.** > 100 µM

**Q.** And the TGI (NCI-H460 lung)?
**A.** > 100 µM

**Q.** And the TGI (RPMI-8226 leukemia)?
**A.** 39.2 µM

**Q.** What about the TGI (COLO 205 colon) of the same compound?
**A.** 82.7 µM

**Q.** What about the TGI (NCI-H522 lung) of the same compound?
**A.** > 100 µM

**Q.** And the TGI (HOP-62 NSCLC)?
**A.** > 100 µM

**Q.** What about the TGI (HCT-15 colon) of the same compound?
**A.** > 100 µM

**Q.** What about the TGI (IGROV1 ovarian) of the same compound?
**A.** > 100 µM

**Q.** What about the TGI (DU-145 prostate) of the same compound?
**A.** > 100 µM

**Q.** What about the TGI (HL-60(TB) leukemia) of the same compound?
**A.** 51.9 µM

**Q.** And the TGI (NCI-H226 lung)?
**A.** 90.9 µM

**Q.** What about the TGI (A498 renal) of the same compound?
**A.** 67.7 µM

**Q.** And the TGI (RXF 393 renal)?
**A.** > 100 µM

**Q.** And the TGI (SW-620 colon)?
**A.** > 100 µM

**Q.** What about the TGI (LOX IMVI melanoma) of the same compound?
**A.** > 100 µM

**Q.** What about the TGI (A549 NSCLC) of the same compound?
**A.** > 100 µM

**Q.** What about the TGI (NCI/ADR-RES ovarian) of the same compound?
**A.** > 100 µM

**Q.** What about the TGI (786-0 renal) of the same compound?
**A.** > 100 µM

**Q.** What about the TGI (UO-31 renal) of the same compound?
**A.** > 100 µM

**Q.** And the TGI (U251 CNS)?
**A.** > 100 µM

**Q.** And the TGI (MOLT-4 leukemia)?
**A.** > 100 µM

**Q.** And the TGI (OVCAR-4 ovarian)?
**A.** > 100 µM

**Q.** And the TGI (HS 578T breast)?
**A.** > 100 µM

**Q.** What about the TGI (HT29 colon) of the same compound?
**A.** > 100 µM

**Q.** And the TGI (M14 melanoma)?
**A.** > 100 µM

**Q.** What about the TGI (SF-295 CNS) of the same compound?
**A.** > 100 µM
